This assay addresses T1, Human calcitonin (hCT) (Homo sapiens, UniProt P01258).
T1 construct: gene CALCA; mature 32-residue calcitonin peptide cut from the calcitonin precursor; disulfide Cys-1/Cys-7, C terminus amidated; no tag
T1 sequence (P01258 85-116 limits assumed): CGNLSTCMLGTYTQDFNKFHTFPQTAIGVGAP
The experiment in a line: isothermal titration calorimetry. Conditions: read-out: Kb. The format is binding. On the technique in general: Isothermal titration calorimetry measures the heat released or taken up as one component is titrated into another.

Regarding `C=CCc1ccc(O)c(-c2ccc(O)c(CC=C)c2)c1` [honokiol], the Kd turned out to be 6.49 µM.

Take `C=CCc1ccc(O)c(-c2cc(CC=C)ccc2O)c1` [magnolol]: the Kd amounted to 2.62 µM.

The record behind these values is paper PMC4555095, “Inhibitory effects of magnolol and honokiol on human calcitonin aggregation” (Scientific Reports, 2015).
